From patent US11292787B2, “Five-membered-fused-six-membered aza-aromatic ring compound, preparation method thereof, pharmaceutical composition and application thereof” (XIAMEN UNIVERSITY, priority 2017, dated 2022) come the findings set out here.

For this experiment, the target named is T1, K-Ras protein (Homo sapiens, UniProt P01116, G12V).
T1 construct: in SW620 cells, compound I-a-1 can effectively enhance the degradation of endogenous K-RAS-G12V proteins; endogenous in cells; host or cells: SW-620
The experiment can be described thus: K-Ras protein degradation rate by Western blot in SW-620 cells. Format: cell-based. The following applies: 10 μM, SW-620 cells, 24 h, Western blot, relative to DMSO control; read-out: Degradation rate of compounds at 10 μM on Ras protein (%). How it is done:
Inhibitory activity of compounds on K-RAS was evaluated by the degradation rate of protein level of administration group relative to control group (Cell Rep 2014, 7, 871-882).
The specific method was as follows:
1. Cell plating: SW-620 cells in logarithmic growth phase were inoculated into a 24-well plate at 2×10^4/well, and cultured in a 37° C., 5% CO2 incubator.
2. Administering drug to cells: after 24 h of culture, various drug stocks […]; the original solution in the 24-well plate was discarded, to which was added the obtained drug solution, with the DMSO group as the blank control; after the drug solution was added, the 24-well plate was transferred to the 37° C. CO2 incubator to continue the culture.
3. Detection of K-Ras protein level: after 24 h of administration and culture, the liquid in the well was discarded, the cells were routinely collected, and rinsed twice with 1×PBS, a cell lysate was added to extract the total cellular protein, and the protein concentration was determined by BCA method. 30 μg of the protein sample was taken for SDS-polyacrylamide gel electrophoretic transmembrane, the membrane was blocked sequentially, incubated with K-Ras antibody (1:1000) and internal reference antibody β-actin (1:2000) respectively overnight at 4° C., rinsed with TBST for 5 min×3 times, then incubated with the addition of the corresponding horseradish peroxidase-labeled secondary antibody (1:5000) for 1-2 h, and rinsed with TBST for 5 min×3 times. Finally, chemiluminescence image was acquired using Image Lab software.
4. Calculation of single-point K-Ras protein degradation rate: quantitative and calibration analysis of K-Ras and β-actin were conducted using Image-Lab software, and then the intracellular K-Ras degradation rate was calculated according to the following formula: single-point K-Ras protein degradation rate (%)=(control group−administration group)/control group×100%. The drug with degradation rate ≥20% was selected for soft agar experiment.
For orientation: A western blot detects proteins with antibodies after separation by electrophoresis.

T1 sequence (P01116 1-188 isoform P01116-2 G12V): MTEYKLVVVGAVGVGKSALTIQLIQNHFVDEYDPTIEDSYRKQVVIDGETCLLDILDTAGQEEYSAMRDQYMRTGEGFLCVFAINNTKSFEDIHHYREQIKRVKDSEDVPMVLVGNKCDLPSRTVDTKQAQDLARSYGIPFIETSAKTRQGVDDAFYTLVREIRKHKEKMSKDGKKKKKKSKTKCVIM

For the compound `O=C(NCc1cccc(Br)c1)c1c[nH]c(-c2n[nH]c3ncccc23)c1` [III-f-41], the percent K-Ras protein degradation (single point) at 10 µM turned out to be 60%. With `O=C(Nc1ccccc1)c1ccc(-c2cnc3ccccn23)cc1` [IX-e-2] the figure was 50%; with `O=C(NCc1c(F)cccc1Cl)c1coc(-c2n[nH]c3ncccc23)c1` [III-b-1], 35%. With `O=C(Nc1ccccc1)c1ccc(-c2n[nH]c3ccccc23)s1` [I-f-2] the figure was 25%; with `O=C(NCc1cc(C(F)(F)F)ccc1F)c1csc(-c2n[nH]c3ccccc23)c1` [I-a-9], 30%. Turning to `O=C(NCc1c(F)cccc1Cl)c1ccc(-c2cnc3ccccn23)cc1` [IX-e-1], the percent K-Ras protein degradation (single point) at 10 µM came out at 40%. With `N#Cc1ccc(CNC(=O)c2c[nH]c(-c3n[nH]c4ncccc34)c2)cc1` [III-f-31] the figure was 45%; with `O=C(Nc1ccccc1)c1coc(-c2c[nH]c3ncccc23)c1` [II-b-2], 50%. On to `O=C(NCc1ccccc1O)c1c[nH]c(-c2n[nH]c3ncccc23)c1` [III-f-35], for which the percent K-Ras protein degradation (single point) at 10 µM was 50%. With `O=C(NC1CCCCC1)c1csc(-c2c[nH]c3ccccc23)c1` [IV-a-3] the figure was 35%; with `O=C(Nc1ccccc1)c1coc(-c2c[nH]c3ccccc23)c1` [IV-c-2], 50%; with `O=C(NC1CCCCC1)c1c[nH]c(-c2cnc3cccnn23)c1` [VIII-b-3], 2%. For the compound `O=C(Nc1ccccc1)c1coc(-c2cnc3ccccn23)c1` [IX-c-2], the percent K-Ras protein degradation (single point) at 10 µM came to 40%.

Consider `O=C(NCc1ccc(Cl)c(C(F)(F)F)c1)c1c[nH]c(-c2n[nH]c3ncccc23)c1` [III-f-61], for which the percent K-Ras protein degradation (single point) at 10 µM is 50%. With `O=C(NCc1c(F)cccc1Cl)c1csc(-c2c[nH]c3ccccc23)c1` [IV-a-1] the figure was 10%; with `O=C(NCc1cc(C(F)(F)F)ccc1F)c1csc(-c2n[nH]c3ncccc23)c1` [III-a-4], 60%; with `O=C(Nc1ccccc1)c1ccc(-c2n[nH]c3ncccc23)cc1` [III-d-2], 18%. With `O=C(NCc1c(F)cccc1Cl)c1cccc(-c2n[nH]c3ccccc23)c1` [I-d-1] the figure was 2%. `O=C(NCc1ccccc1F)c1c[nH]c(-c2n[nH]c3ncccc23)c1` [III-f-45]: the percent K-Ras protein degradation (single point) at 10 µM was determined as 50%. With `O=C(Nc1cccc(F)c1)c1c[nH]c(-c2n[nH]c3ncccc23)c1` [III-f-13] the figure was 16%. With `O=C(NCc1c(F)cccc1Cl)c1coc(-c2cnc3cccnn23)c1` [VIII-c-1] the figure was 12%.

With `O=S(=O)(Cc1c(F)cccc1Cl)c1c[nH]c(-c2n[nH]c3ncccc23)c1` [III-h-4], the percent K-Ras protein degradation (single point) at 10 µM was 41%. With `O=C(Nc1ccccc1)c1c[nH]c(-c2cnc3cccnn23)c1` [VIII-b-2] the figure was 10%; with `Cc1cccc(CNC(=O)c2c[nH]c(-c3n[nH]c4ncccc34)c2)c1` [III-f-50], 40%; with `O=C(Nc1ccccc1)c1coc(-c2cnc3cccnn23)c1` [VIII-c-2], 10%. With `O=C(NCc1c(F)cccc1Cl)c1ccc(-c2n[nH]c3ccccc23)s1` [I-f-1] the figure was 20%; with `O=C(NCc1ccccc1Cl)c1c[nH]c(-c2n[nH]c3ncccc23)c1` [III-f-47], 50%; with `O=C(NCc1c(F)cccc1Cl)c1c[nH]c(-c2n[nH]c3ccccc23)c1` [I-b-1], 50%. With `O=C(NC1CCCCC1)c1ccc(-c2c[nH]c3ccccc23)cc1` [IV-e-3] the figure was 40%; with `O=C(NCc1cccc([N+](=O)[O-])c1)c1c[nH]c(-c2n[nH]c3ncccc23)c1` [III-f-48], 60%. Consider `CC(C)(C)n1nc(-c2cc(C(=O)Nc3ccccc3)cs2)c2c(N)ncnc21` [VI-a-2], for which the percent K-Ras protein degradation (single point) at 10 µM was found to be 30%. With `O=S(=O)(Cc1ccccc1)c1c[nH]c(-c2n[nH]c3ncccc23)c1` [III-h-1], the percent K-Ras protein degradation (single point) at 10 µM came to 14%. With `O=C(NCc1ccc(OC(F)(F)F)cc1)c1c[nH]c(-c2n[nH]c3ncccc23)c1` [III-f-40] the figure was 30%; with `O=C(NCc1c(F)cccc1Cl)c1c[nH]c(-c2cnc3cccnn23)c1` [VIII-b-1], 20%; with `COc1cccc(CNC(=O)c2c[nH]c(-c3n[nH]c4ncccc34)c2)c1` [III-f-53], 50%.

For `O=C(NCc1c(F)cccc1Cl)c1cccc(-c2cnc3cccnn23)c1` [VIII-d-1], the percent K-Ras protein degradation (single point) at 10 µM turned out to be 2%. On to `O=C(NCc1cccc(C(F)(F)F)c1)c1csc(-c2n[nH]c3ccccc23)c1` [I-a-8], for which the percent K-Ras protein degradation (single point) at 10 µM was determined as 20%. `O=C(Nc1c(F)cccc1Cl)c1cccc(-c2n[nH]c3ncccc23)c1` [III-c-3]: the percent K-Ras protein degradation (single point) at 10 µM was determined as 16%. With `O=C(NCc1c(F)cccc1Cl)c1coc(-c2cnc3ccccn23)c1` [IX-c-1] the figure was 40%. With `O=C(Nc1ccccc1)c1ccc(-c2n[nH]c3ncccc23)s1` [III-e-2] the figure was 40%. `O=C(NCc1cccc(Cl)c1)c1c[nH]c(-c2n[nH]c3ncccc23)c1` [III-f-46]: the percent K-Ras protein degradation (single point) at 10 µM worked out at 60%. With `COc1ccc(CNC(=O)c2c[nH]c(-c3n[nH]c4ncccc34)c2)cc1` [III-f-55] the figure was 25%. With `O=C(NCc1c(F)cccc1Cl)c1ccc(-c2c[nH]c3ccccc23)s1` [IV-f-1] the figure was 10%; with `O=C(NCc1c(F)cccc1Cl)c1coc(-c2c[nH]c3ncccc23)c1` [II-b-1], 52%; with `O=C(NCc1c(F)cccc1Cl)c1ccc(-c2nnc3ccccn23)s1` [X-f-1], 20%.

As to `O=C(NCc1cccc(C(F)(F)F)c1)c1csc(-c2cnc3cnccn23)c1` [VII-a-2], the percent K-Ras protein degradation (single point) at 10 µM turned out to be 60%. `O=C(NCCc1ccccc1)c1c[nH]c(-c2n[nH]c3ncccc23)c1` [III-f-24]: the percent K-Ras protein degradation (single point) at 10 µM was found to be 13%.

With `O=C(NC1CCCCC1)c1ccc(-c2cnc3cccnn23)s1` [VIII-f-3], the percent K-Ras protein degradation (single point) at 10 µM is 15%. With `O=C(NCc1cccc(C(F)(F)F)c1F)c1c[nH]c(-c2n[nH]c3ncccc23)c1` [III-f-60] the figure was 65%; with `O=C(NCc1cc(F)cc(C(F)(F)F)c1)c1c[nH]c(-c2n[nH]c3ncccc23)c1` [III-f-58], 75%; with `O=C(NCc1ccccc1OC(F)(F)F)c1c[nH]c(-c2n[nH]c3ncccc23)c1` [III-f-39], 60%. With `O=C(Nc1ccccc1)c1ccc(-c2c[nH]c3ccccc23)cc1` [IV-e-2] the figure was 20%; with `O=C(NCc1cc(C(F)(F)F)ccc1F)c1csc(-c2cnc3cnccn23)c1` [VII-a-3], 30%; with `O=C(NC1CCCCC1)c1ccc(-c2cnc3cccnn23)cc1` [VIII-e-3], 20%. For `O=C(NCc1c(F)cccc1Cl)c1ccc(-c2cnc3cnccn23)s1` [VII-f-1], the percent K-Ras protein degradation (single point) at 10 µM amounted to 25%.

Take `CC(C)(C)n1nc(-c2cccc(C(=O)NCc3c(F)cccc3Cl)c2)c2c(N)ncnc21` [VI-d-1]: the percent K-Ras protein degradation (single point) at 10 µM was 30%. With `O=C(NCc1c(F)cccc1Cl)c1csc(-c2cnc3cccnn23)c1` [VIII-a-1] the figure was 40%; with `O=S(=O)(Cc1ccc(Cl)cc1)c1c[nH]c(-c2n[nH]c3ncccc23)c1` [III-h-5], 16%. For the compound `O=C(Nc1ccccc1)c1c[nH]c(-c2n[nH]c3ncccc23)c1` [III-f-10], the percent K-Ras protein degradation (single point) at 10 µM was 18%. With `CC(C)(C)n1nc(-c2cccc(C(=O)Nc3ccccc3)c2)c2c(N)ncnc21` [VI-d-2] the figure was 30%; with `O=C(NCc1ccc(F)c(C(F)(F)F)c1)c1c[nH]c(-c2n[nH]c3ncccc23)c1` [III-f-57], 70%.
